The record followed here is patent US11446287B2, “Compounds and methods for EP300 or CBP modulation and indications therefor” (Opna Immuno-Oncology SA, priority 2019, dated 2022).

The target of this experiment is T1, Recombinant human CBP containing the bromodomain (CBP-BD (1043-1159)) (Homo sapiens, UniProt Q92793).
T1 construct: Recombinant human CBP bromodomain (CBP-BD (1043-1159)); made in house; host or cells: E. coli BL21-CodonPlus (DE3), modified pET vector
In words: CBP Alphascreen binding assay. The settings on record: read-out: CREBBP (CBP) IC50. The method, boiled down:
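Buffer: 50 mM HEPES pH 7.5, 50 mM NaCl, 0.01% BSA, 0.01% Triton X-100, 2 mM DTT. The signal was normalised to plate controls and fitted with a four-parameter curve to give IC50.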

T1 sequence (Q92793 1081-1197): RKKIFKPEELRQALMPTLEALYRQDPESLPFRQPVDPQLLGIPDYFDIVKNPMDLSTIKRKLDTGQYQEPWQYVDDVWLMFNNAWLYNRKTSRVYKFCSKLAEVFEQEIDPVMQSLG

For `Cc1noc(C)c1-c1cnc2c(c1)c(-c1ccc(C(N)=O)cc1)cn2C(c1ccccn1)C1CCCC1` (stereo not drawn) [P-0020, 4-(1-(cyclopentyl(pyridin-2-yl)methyl)-5-(3,5-dimethylisoxazol-4-yl)-1H-pyrrolo[2,3-b]pyridin-3-yl)benzamide], the IC50 was in the range of 1 to 8 µM.

Regarding `CNC(=O)c1ccc(-c2cn(C(c3ccccn3)C3CCCC3)c3ncc(-c4c(C)noc4C)cc23)cc1` (stereo not drawn) [P-0021, 4-(1-(cyclopentyl(pyridin-2-yl)methyl)-5-(3,5-dimethylisoxazol-4-yl)-1H-pyrrolo[2,3-b]pyridin-3-yl)-N-methylbenzamide], the IC50 was in the range of 1 to 8 µM.

For the compound `Cc1noc(C)c1-c1cnc2c(c1)c(-c1ccc(C#N)cc1)cn2C(c1ccccn1)C1CCCC1` (stereo not drawn) [P-0022, 4-(1-(cyclopentyl(pyridin-2-yl)methyl)-5-(3,5-dimethylisoxazol-4-yl)-1H-pyrrolo[2,3-b]pyridin-3-yl)benzonitrile], the IC50 was 8 to 1000 µM.

Turning to `Cc1noc(C)c1-c1cnc2c(c1)c(-c1ccc3c(c1)CNC3=O)cn2C(c1ccccn1)C1CCCC1` (stereo not drawn) [P-0023, 5-(1-(cyclopentyl(pyridin-2-yl)methyl)-5-(3,5-dimethylisoxazol-4-yl)-1H-pyrrolo[2,3-b]pyridin-3-yl)isoindolin-1-one], the concentration for half-maximal inhibition (IC50) lay in the range of 1 to 8 µM.

Consider `Cc1noc(C)c1-c1cnc2c(c1)c(-c1ccc(-c3nn[nH]n3)cc1)cn2C(c1ccccn1)C1CCCC1` (stereo not drawn) [P-0024, 4-(3-(4-(2H-tetrazol-5-yl)phenyl)-1-(cyclopentyl(pyridin-2-yl)methyl)-1H-pyrrolo[2,3-b]pyridin-5-yl)-3,5-dimethylisoxazole], for which the IC50 was 1 to 8 µM.

Take `Cc1noc(C)c1-c1cnc2c(c1)c(-c1ccc(C(=O)O)c(F)c1)cn2C(c1ccccn1)C1CCCC1` (stereo not drawn) [P-0025, 4-(1-(cyclopentyl(pyridin-2-yl)methyl)-5-(3,5-dimethylisoxazol-4-yl)-1H-pyrrolo[2,3-b]pyridin-3-yl)-2-fluorobenzoic acid]: the IC50 was 0.0001 to 1 µM.

Turning to `Cc1noc(C)c1-c1cnc2c(c1)c(-c1ccc(C(=O)O)nc1)cn2C(c1ccccn1)C1CCCC1` (stereo not drawn) [P-0026, 5-(1-(cyclopentyl(pyridin-2-yl)methyl)-5-(3,5-dimethylisoxazol-4-yl)-1H-pyrrolo[2,3-b]pyridin-3-yl)picolinic acid], the IC50 lay within 0.0001 to 1 µM.

`Cc1cc(-c2c(C(F)(F)F)n([C@@H](C)c3ccccn3)c3cc(-c4c(C)noc4C)cnc23)ccc1C(=O)O` [P-0243, (S)-4-(6-(3,5-dimethylisoxazol-4-yl)-1-(1-(pyridin-2-yl)ethyl)-2-(trifluoromethyl)-1H-pyrrolo[3,2-b]pyridin-3-yl)-2-methylbenzoic acid]: the 50% inhibitory concentration (IC50) lay within 1 to 8 µM.

On to `COc1cc(-c2c(C(F)(F)F)n([C@@H](C)c3ccccn3)c3cc(-c4c(C)noc4C)cnc23)ccc1C(=O)O` [P-0244, (S)-4-(6-(3,5-dimethylisoxazol-4-yl)-1-(1-(pyridin-2-yl)ethyl)-2-(trifluoromethyl)-1H-pyrrolo[3,2-b]pyridin-3-yl)-2-methoxybenzoic acid], for which the IC50 lay in the range of 1 to 8 µM.

In the case of `Cc1noc(C)c1-c1cnc2c(-c3cccc(C(=O)O)c3F)c(C(F)(F)F)n([C@@H](C)c3ccccn3)c2c1` [P-0245, (S)-3-(6-(3,5-dimethylisoxazol-4-yl)-1-(1-(pyridin-2-yl)ethyl)-2-(trifluoromethyl)-1H-pyrrolo[3,2-b]pyridin-3-yl)-2-fluorobenzoic acid], the IC50 fell in the range of 0.0001 to 1 µM.

For the compound `Cc1noc(C)c1-c1cnc2c(-c3cccc(C(=O)O)c3C)c(C(F)(F)F)n([C@@H](C)c3ccccn3)c2c1` [P-0246, (S)-3-(6-(3,5-dimethylisoxazol-4-yl)-1-(1-(pyridin-2-yl)ethyl)-2-(trifluoromethyl)-1H-pyrrolo[3,2-b]pyridin-3-yl)-2-methylbenzoic acid], the IC50 lay within 1 to 8 µM.

Regarding `Cc1noc(C)c1-c1cnc2c(-c3cccc(C(=O)O)c3Cl)c(C(F)(F)F)n([C@@H](C)c3ccccn3)c2c1` [P-0247, (S)-2-chloro-3-(6-(3,5-dimethylisoxazol-4-yl)-1-(1-(pyridin-2-yl)ethyl)-2-(trifluoromethyl)-1H-pyrrolo[3,2-b]pyridin-3-yl)benzoic acid], the IC50 was 0.0001 to 1 µM.

Take `CCOC(=O)c1cc(-c2cn(-c3ccc(F)cc3F)c3ncc(-c4c(C)noc4C)cc23)c(OCC)cc1O` [P-0248, ethyl 5-(1-(2,4-difluorophenyl)-5-(3,5-dimethylisoxazol-4-yl)-1H-pyrrolo[2,3-b]pyridin-3-yl)-4-ethoxy-2-hydroxybenzoate]: the IC50 lay in the range of 8 to 1000 µM.

With `CCOc1cc(O)c(C(=O)O)cc1-c1cn(-c2ccc(F)cc2F)c2ncc(-c3c(C)noc3C)cc12` [P-0249, 5-(1-(2,4-difluorophenyl)-5-(3,5-dimethylisoxazol-4-yl)-1H-pyrrolo[2,3-b]pyridin-3-yl)-4-ethoxy-2-hydroxybenzoic acid], the IC50 lay in the range of 0.0001 to 1 µM.

On to `CCOc1cc(OC)c(C(=O)O)cc1-c1cn(-c2ccc(F)cc2F)c2ncc(-c3c(C)noc3C)cc12` [P-0250, 5-(1-(2,4-difluorophenyl)-5-(3,5-dimethylisoxazol-4-yl)-1H-pyrrolo[2,3-b]pyridin-3-yl)-4-ethoxy-2-methoxybenzoic acid], for which the IC50 was in the range of 0.0001 to 1 µM.

On to `Cc1noc(C)c1-c1cnc2c(c1)c(-c1ccc(C(=O)O)cc1OC(F)(F)F)cn2-c1cnccc1F` [P-0251, 4-(5-(3,5-dimethylisoxazol-4-yl)-1-(4-fluoropyridin-3-yl)-1H-pyrrolo[2,3-b]pyridin-3-yl)-3-(trifluoromethoxy)benzoic acid], for which the half-inhibitory concentration (IC50) lay within 0.0001 to 1 µM.

Turning to `Cc1noc(C)c1-c1cnc2c(c1)c(-c1ccc(C(=O)O)cc1OC(F)(F)F)cn2-c1cnccc1O` [P-0252, 4-(5-(3,5-dimethylisoxazol-4-yl)-1-(4-hydroxypyridin-3-yl)-1H-pyrrolo[2,3-b]pyridin-3-yl)-3-(trifluoromethoxy)benzoic acid], the IC50 lay in the range of 0.0001 to 1 µM.

For `Cc1noc(C)c1-c1cnc2c(c1)c(-c1ccc(C(=O)O)cc1OC(F)(F)F)cn2-c1ccncc1Cl` [P-0253, 4-(1-(3-chloropyridin-4-yl)-5-(3,5-dimethylisoxazol-4-yl)-1H-pyrrolo[2,3-b]pyridin-3-yl)-3-(trifluoromethoxy)benzoic acid], the 50% inhibitory concentration (IC50) fell in the range of 0.0001 to 1 µM.

As for `Cc1noc(C)c1-c1cnc2c(c1)c(-c1ccc(C(=O)O)cc1OC(F)(F)F)cn2-c1c(F)cccc1C#N` [P-0254, 4-(1-(2-cyano-6-fluorophenyl)-5-(3,5-dimethylisoxazol-4-yl)-1H-pyrrolo[2,3-b]pyridin-3-yl)-3-(trifluoromethoxy)benzoic acid], the IC50 was 0.0001 to 1 µM.

For the compound `COc1cc(C(=O)O)cc(C)c1-c1cn(-c2ccccc2)c2ncc(-c3c(C)noc3C)cc12` [P-0255, 4-(5-(3,5-dimethylisoxazol-4-yl)-1-phenyl-1H-pyrrolo[2,3-b]pyridin-3-yl)-3-methoxy-5-methylbenzoic acid], the IC50 was 0.0001 to 1 µM.

With `Cc1noc(C)c1-c1cnc2c(-c3ccc(C(=O)O)cc3C#N)c(C(F)(F)F)n([C@@H](C)c3ccccn3)c2c1` [P-0256, (S)-3-cyano-4-(6-(3,5-dimethylisoxazol-4-yl)-1-(1-(pyridin-2-yl)ethyl)-2-(trifluoromethyl)-1H-pyrrolo[3,2-b]pyridin-3-yl)benzoic acid], the IC50 was in the range of 0.0001 to 1 µM.
